Molecules are shown by their SMILES.

For nine compounds, Ki results are on record in ChEMBL document CHEMBL1131101, “2-, 5-, and 6-Halo-3-(2(S)-azetidinylmethoxy)pyridines: synthesis, affinity for nicotinic acetylcholine receptors, and molecular modeling” (J Med Chem, 1998).

In the test the target is Neuronal acetylcholine receptor; alpha4/beta2 (Rattus norvegicus, UniProt P09483+P12390). Nature of the test: Binding affinity for alpha4 beta-2 nAChR using [3H]epibatidine in rat brain. It is filed as tissue-based.
Chain of Neuronal acetylcholine receptor; alpha4/beta2 (P09483 whole entry): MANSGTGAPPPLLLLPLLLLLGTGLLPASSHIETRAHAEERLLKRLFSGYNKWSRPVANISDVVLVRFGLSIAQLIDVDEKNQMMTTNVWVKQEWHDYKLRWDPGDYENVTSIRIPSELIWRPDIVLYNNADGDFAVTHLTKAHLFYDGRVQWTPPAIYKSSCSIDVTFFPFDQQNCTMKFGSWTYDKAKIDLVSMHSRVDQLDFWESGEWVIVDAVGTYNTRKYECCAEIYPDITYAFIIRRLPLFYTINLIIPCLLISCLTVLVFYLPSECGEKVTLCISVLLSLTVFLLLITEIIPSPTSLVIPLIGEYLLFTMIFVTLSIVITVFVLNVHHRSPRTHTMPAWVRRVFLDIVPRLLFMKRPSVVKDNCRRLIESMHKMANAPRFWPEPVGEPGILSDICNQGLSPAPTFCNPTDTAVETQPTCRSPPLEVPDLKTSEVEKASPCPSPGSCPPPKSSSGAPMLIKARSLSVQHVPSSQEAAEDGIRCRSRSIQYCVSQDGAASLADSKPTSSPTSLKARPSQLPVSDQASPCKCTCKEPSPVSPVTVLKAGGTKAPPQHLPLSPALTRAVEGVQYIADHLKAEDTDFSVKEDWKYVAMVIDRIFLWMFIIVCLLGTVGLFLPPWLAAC
Chain of Neuronal acetylcholine receptor; alpha4/beta2 (P12390 whole entry): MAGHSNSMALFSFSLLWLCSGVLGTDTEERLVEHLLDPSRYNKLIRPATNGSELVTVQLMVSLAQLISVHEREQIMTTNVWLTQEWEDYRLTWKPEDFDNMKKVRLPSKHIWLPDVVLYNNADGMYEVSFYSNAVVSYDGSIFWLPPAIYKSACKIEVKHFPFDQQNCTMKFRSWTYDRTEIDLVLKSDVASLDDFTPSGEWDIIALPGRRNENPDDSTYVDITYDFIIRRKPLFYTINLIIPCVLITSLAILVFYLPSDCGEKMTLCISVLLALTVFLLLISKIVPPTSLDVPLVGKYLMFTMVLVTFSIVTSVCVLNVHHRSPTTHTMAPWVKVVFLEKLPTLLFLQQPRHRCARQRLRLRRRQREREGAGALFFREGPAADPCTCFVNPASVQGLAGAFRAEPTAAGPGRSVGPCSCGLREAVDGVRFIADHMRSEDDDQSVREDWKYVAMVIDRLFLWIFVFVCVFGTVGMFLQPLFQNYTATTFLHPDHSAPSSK
A word on the Ki: it is the equilibrium dissociation constant of an inhibitor or competing ligand from its target. A high value points to a looser hold on the target. Regarding `Ic1ncccc1OC[C@@H]1CCN1`, the Ki is greater than 1 pM.

In turn, `Ic1ccc(OC[C@@H]2CCN2)cn1` had a Ki of 150 pM.

Turning to `Brc1ncccc1OC[C@@H]1CCN1`, the inhibitory constant (Ki) came out at 240 pM.

`Fc1ccc(OC[C@@H]2CCN2)cn1` had a Ki of 25 pM.

Consider `c1cncc(OC[C@@H]2CCN2)c1`, for which the Ki is 17 pM.

On to `Clc1ncccc1OC[C@@H]1CCN1`, for which the Ki came to 8.4 pM.

In the case of `Clc1cncc(OC[C@@H]2CCN2)c1`, the Ki was found to be 30 pM.

For the compound `Fc1cncc(OC[C@@H]2CCN2)c1`, the Ki was determined as 25 pM.

The compound `Brc1cncc(OC[C@@H]2CCN2)c1` registered a Ki of 21 pM.
